Literature values, collected in patent publication US11154501B2, “Method of enhancing the efficacy and stability of ingredients in suspensions” (Nanophase Technologies Corporation, priority 2019, dated 2021).

Conditions: for solubility limit: in water at 25° C.

SMILES	solubility limit [%]	solubility (in words) (in neutral water)
NC(=O)NC1NC(=O)NC1=O (stereo not drawn) [allantoin, (2,5-dioxo-4-imidazolidinyl) urea, reference compound]	0.5	–
C[C@@H]1O[C@@H](OC[C@H]2O[C@@H](Oc3c(-c4ccc(O)c(O)c4)oc4cc(O)cc(O)c4c3=O)[C@H](O)[C@@H](O)[C@@H]2O)[C@H](O)[C@H](O)[C@H]1O [rutin]	0.013	–
O.O.O=c1c(O)c(-c2ccc(O)c(O)c2)oc2cc(O)cc(O)c12 [quercetin dihydrate]	–	very poorly soluble
